According to patent US12139520B2 (priority 2020, dated 2024):
Numbered stars: 1 amine (or outer) side, 2 acyl side, 3 side chain; on linkers, the order of the positions; unused ones are H or OH. Bridge positions count the residues as written; N and C are the ends. Square brackets hold non-standard residues; d marks the D form. Side chains are listed from the residue outwards. Peptide text beside a SMILES is read from it. * marks the point of attachment. C20 diacid = O=C(O)CCCCCCCCCCCCCCCCCCC(=O)*; γGlu = O=C(O)[C@H](CCC(=O)[*:2])N[*:1]; Hyp = O=C(O)[C@@H]1C[C@@H](O)CN1; AEEA = NCCOCCOCC(=O)O

How the values were obtained:
[1] = target: T1, hAMY3 receptor (Homo sapiens, UniProt O60896+P30988); test: cAMP assay for in vitro receptor activation, hAMY3-R; type: cell-based; conditions: cAMP assay, hAMY3 receptor; read-out: hAMY3R EC50
T1 sequence (P30988 25-474): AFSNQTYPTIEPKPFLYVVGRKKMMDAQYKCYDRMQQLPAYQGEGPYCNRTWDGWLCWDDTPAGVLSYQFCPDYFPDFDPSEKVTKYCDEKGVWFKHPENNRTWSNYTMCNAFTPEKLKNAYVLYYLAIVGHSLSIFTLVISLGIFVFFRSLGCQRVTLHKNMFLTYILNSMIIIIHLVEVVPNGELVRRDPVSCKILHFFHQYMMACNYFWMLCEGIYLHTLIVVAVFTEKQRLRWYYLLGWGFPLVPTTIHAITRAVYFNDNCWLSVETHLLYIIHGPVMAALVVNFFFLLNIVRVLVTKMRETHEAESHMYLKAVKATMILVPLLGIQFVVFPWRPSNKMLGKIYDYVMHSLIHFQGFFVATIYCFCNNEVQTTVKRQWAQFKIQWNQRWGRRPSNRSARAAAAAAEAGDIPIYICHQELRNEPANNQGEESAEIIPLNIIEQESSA
T1 sequence (O60896 24-148 partner): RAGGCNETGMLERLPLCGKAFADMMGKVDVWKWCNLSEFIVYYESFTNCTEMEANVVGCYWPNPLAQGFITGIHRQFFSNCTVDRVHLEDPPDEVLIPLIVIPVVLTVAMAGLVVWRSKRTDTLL
Outline: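 Read-out is TR-FRET cAMP signal, recorded one hour after reagent addition, following 30 min room-temperature stimulation of stable hAMY3 cells with graded compound doses in casein/IBMX (0.5 mM) buffer.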

[2] = target: hAM1 receptor (Homo sapiens, UniProt O60895+Q16602); test: cAMP assay for in vitro receptor activation, hAM1-R; type: cell-based; conditions: cAMP assay, hAM1 receptor; read-out: hAM1R EC50
hAM1 receptor, sequence (Q16602 23-461): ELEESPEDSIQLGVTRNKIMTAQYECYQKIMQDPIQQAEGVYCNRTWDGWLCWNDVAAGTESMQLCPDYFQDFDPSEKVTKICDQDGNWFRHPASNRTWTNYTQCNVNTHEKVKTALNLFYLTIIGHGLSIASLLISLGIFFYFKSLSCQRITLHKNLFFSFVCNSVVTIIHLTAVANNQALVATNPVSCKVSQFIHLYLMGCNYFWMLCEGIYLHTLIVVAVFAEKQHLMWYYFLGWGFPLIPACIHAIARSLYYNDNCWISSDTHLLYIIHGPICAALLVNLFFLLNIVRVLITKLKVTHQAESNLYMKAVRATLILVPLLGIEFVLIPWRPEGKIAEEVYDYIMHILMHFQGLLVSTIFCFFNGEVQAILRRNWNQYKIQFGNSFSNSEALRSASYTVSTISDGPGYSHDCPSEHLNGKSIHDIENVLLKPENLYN
hAM1 receptor, sequence (O60895 43-175 partner): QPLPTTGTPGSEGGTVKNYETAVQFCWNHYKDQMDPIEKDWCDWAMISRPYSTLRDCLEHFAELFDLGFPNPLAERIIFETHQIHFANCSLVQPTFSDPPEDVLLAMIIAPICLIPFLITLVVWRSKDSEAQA
Outline: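 Stable hAM1 cells (monoclonal) plated 8000/well; buffer DPBS, 0.05% casein, 0.5 mM IBMX; cAMP read-out.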

Row | EC50 [1] [nM] | EC50 [2] [nM] | Structure (SMILES)
1 | 0.018 | > 5000 | CC[C@H](C)[C@H](NC(=O)[C@H](CCC(N)=O)NC(=O)[C@H](Cc1c[nH]cn1)NC(=O)[C@H](C)NC(=O)[C@H](CC(C)C)NC(=O)[C@H](CCCNC(=N)N)NC(=O)[C@H](CCC(N)=O)NC(=O)[C@@H](NC(=O)[C@@H](NC(=O)[C@@H]1CSSC[C@H](NC(=O)[C@H](CCCCN)NC(=O)CC[C@H](NC(=O)CCCCCCCCCCCCCCCCCCC(=O)O)C(=O)O)C(=O)N[C@@H](CC(N)=O)C(=O)N[C@@H]([C@@H](C)O)C(=O)N[C@@H](C)C(=O)N[C@@H]([C@@H](C)O)C(=O)N1)[C@@H](C)O)C(C)C)C(=O)N[C@@H](Cc1ccc(O)cc1)C(=O)N[C@@H](CCC(N)=O)C(=O)N[C@@H](Cc1ccccc1)C(=O)N[C@@H](Cc1ccc(O)cc1)C(=O)N[C@@H](CC(=O)O)C(=O)N[C@@H](CCCCN)C(=O)N[C@@H](CC(=O)O)C(=O)N[C@@H](CCCCN)C(=O)N[C@@H](CC(=O)O)C(=O)N[C@@H](CC(N)=O)C(=O)N[C@H](C(=O)N[C@@H](C)C(=O)N1CCC[C@H]1C(=O)N1CCC[C@H]1C(=O)N[C@H](C(=O)N[C@@H](CC(N)=O)C(=O)N[C@H](C(=O)NCC(=O)N[C@@H](CO)C(=O)N[C@@H](CC(N)=O)C(=O)NCC(=O)N1C[C@H](O)C[C@H]1C(N)=O)C(C)C)[C@@H](C)O)C(C)C [compound 104] ({C20 diacid-γGlu}-KCNTATCTVQRLAHQIYQFYDKDKDNVAPPTNVGSNG[Hyp]-NH2; disulfide 2-7)
2 | 0.007 | > 5000 | CC[C@H](C)[C@H](NC(=O)[C@H](CCC(N)=O)NC(=O)[C@H](CCC(=O)O)NC(=O)[C@H](C)NC(=O)[C@H](CC(C)C)NC(=O)[C@H](CCCNC(=N)N)NC(=O)[C@H](CCC(N)=O)NC(=O)[C@@H](NC(=O)[C@@H](NC(=O)[C@@H]1CSSC[C@H](NC(=O)[C@@H](N)CCCCN)C(=O)N[C@@H](CC(N)=O)C(=O)N[C@@H]([C@@H](C)O)C(=O)N[C@@H](C)C(=O)N[C@@H]([C@@H](C)O)C(=O)N1)[C@@H](C)O)C(C)C)C(=O)N[C@@H](Cc1ccc(O)cc1)C(=O)N[C@@H](CCC(N)=O)C(=O)N[C@@H](Cc1ccccc1)C(=O)N[C@H](C(=O)N[C@@H](CC(=O)O)C(=O)N[C@@H](CCCCN)C(=O)N[C@@H](CC(=O)O)C(=O)N[C@@H](CCCCN)C(=O)N[C@@H](CC(=O)O)C(=O)N[C@@H](CC(N)=O)C(=O)N[C@@H](CCCCNC(=O)COCCOCCNC(=O)COCCOCCNC(=O)CC[C@H](NC(=O)CCCCCCCCCCCCCCCCCCC(=O)O)C(=O)O)C(=O)N[C@@H](C)C(=O)N1CCC[C@H]1C(=O)N1CCC[C@H]1C(=O)N[C@H](C(=O)N[C@@H](CC(N)=O)C(=O)N[C@H](C(=O)NCC(=O)N[C@@H](CO)C(=O)N[C@@H](CC(N)=O)C(=O)NCC(=O)N1C[C@H](O)C[C@H]1C(N)=O)C(C)C)[C@@H](C)O)[C@@H](C)O [compound 12] (H-KCNTATCTVQRLAEQIYQFTDKDKDNK([AEEA-AEEA-γGlu-C20 diacid])APPTNVGSNG[Hyp]-NH2; disulfide 2-7; N-terminus assumed)
